According to patent US20210179680A1, “POLYPEPTIDE, DERIVATIVES THEREOF, AND APPLICATION THEREOF IN PREPARATION OF DRUGS HAVING RESISTANCE TO PULMONARY FIBROSIS” (priority 2016, published 2021):
Bridge positions count the residues as written; N and C are the ends. Square brackets hold non-standard residues; d marks the D form. Peptide text beside a SMILES is read from it. S5 = C=CCCC[C@](C)(N)C(=O)O

Columns and labels:
[1] = system: mice with bleomycin-induced pulmonary fibrosis; experiment: Pulmonary function (Flexivent) in mice with pulmonary fibrosis; format: in vivo, C57BL/6 mice; conditions: Table 3 groups, 2 mg/kg i.p.; for Dynamic compliance (mL/cmH2O) / Dynamic elasticity (cmH2O./mL) / Dynamic resistance (cmH2O · s/Ml) / Inspiratory capacity: 28th day after model construction; for pulmonary function of mice with pulmonary fibrosis (in words): FIG. 11
Protocol: (§1) Male C57BL/6 mice were fasted overnight, then anesthetized with 45 mg/kg sodium pentobarbital by injection intraperitoneally (i.p.), and intratracheally injected with bleomycin at a dose of 3 U/kg. The specific operation steps are as follows: cut the neck skin of the mouse with as little trauma as possible, expose the trachea with the assistance of elbow ophthalmic forceps, puncture the trachea and inject about 50 μL of bleomycin into the trachea with a microsyringe, rotate the mouse quickly and stand it upright for 5 minutes in order to make bleomycin evenly enter the left and right lobe, thereby constructing an animal model. The whole operation was performed at a surgical table at about […]. Mice in the sham operation group were intratracheally injected with an equal amount of physiological saline for injection.
(§2) Pulmonary function is a gold indicator for clinical detection of pulmonary fibrosis in patients. The decline of lung function is generally accompanied by an aggravation of fibrosis, while the improvement of lung function generally represents the recovery of lung tissue structure. Pulmonary fibrosis models were prepared according to the method described in Example 2 and administered in groups according to Table 3. On the 28th day after the construction of the animal model, the mice were anesthetized with sodium pentobarbital (45 mg/kg, i.p.). Lung function was tested by the Flexivent Small-animal respiratory mechanics and the testing methods were TLC and SnapShots (Testing method refers to Lv X, Wang X, Li K, et al. Rupatadine Protects against Pulmonary Fibrosis by Attenuating PAF-Mediated Senescence in Rodents [J]. PloS one, 2013, 8(7): e68631).
as §2, with “lung function also generally represents” for “lung function generally represents”, “to Table 9. 28 days later, the mice” for “to Table 3. On the 28th day after the construction of the animal model, the mice”, “Senescence in Rodents[J]. PloS one,” for “Senescence in Rodents [J]. PloS one,”

[2] = system: mice with bleomycin-induced pulmonary fibrosis; experiment: Hydroxyproline content in lung of mice with pulmonary fibrosis; format: in vivo, C57BL/6 mice; conditions: Table 3 groups, 2 mg/kg i.p.; left lung lobes; chloramine-T method
Protocol: as §1
Hydroxyproline accounts for 13.4% (w/w) of collagen, and extremely small amount of elastin, while it is absent in other proteins. […] Pulmonary fibrosis models were prepared according to the method described in Example 2 and administered in groups according to Table 3. The content of hydroxyproline in the lobes of left lung of the animals was measured 28 days later, and the condition of pulmonary fibrosis was evaluated.
The specific method is as follows: the mice in the animal model prepared in Example 2 was feed in a SPF animal room and treated with polypeptide according to the dosing schedule of Table 3, and all left lobes of lung of the experimental animal was taken on the 21st day after the animal model was constructed and the wet weight was recorded. Then 10% (w/w) tissue homogenate was prepared by ultrasonic homogenization using physiological saline. About 150 μL of homogenate supernatant was taken, and 500 μL of alkali hydrolysate was added (provided by Hydroxyproline alkaline hydrolysis kit of Nanjing Jiancheng Bioengineering Technology Co., Ltd.). After vortex mixing, the mixture was treated with alkaline hydrolysis for 40 min under conditions of 120° C., 0.1 Kpa. After adjusting the pH value, the volume was held constant, and the supernatant was taken after performing activated carbon treatment. The hydroxyproline was determined according to the chloramine-T method (the method of the present example refers to the instruction provided with kit, which was purchased from Nanjing Jiancheng Bioengineering Technology Co., Ltd.). […] In FIG. 10, “##” represents that P value is less than 0.01 when comparing the content of hydroxyproline in the administration group with that in the sham operation group; and “*” represents that P value is less than 0.05 and“**” represents that P value is less than 0.01 when comparing the content of hydroxyproline in the administration group with that in bleomycin group.
Hydroxyproline accounts for 13.4% (w/w) of collagen, and accounts for extremely small amount of elastin, while it is absent in other proteins. […] Pulmonary fibrosis models were prepared according to the method described in Example 2 and administered in groups according to Table 3. The content of hydroxyproline in the all lobes of left lung of the animals was measured 28 days later, and the condition of pulmonary fibrosis was evaluated.
The specific method is as follows: the mice in the animal model prepared in Example 2 was feed in an SPF animal room and treated with polypeptide according to the dosing schedule of Table 3, and all the left lobes of lung of the experimental animal was taken on the 21st day after the animal model was constructed and the wet weight was recorded. Then 10% (w/w) tissue homogenate was prepared by ultrasonic homogenization using physiological saline. About 150 μL of homogenate supernatant was taken, and 500 μL of alkali hydrolysate was added (provided by Hydroxyproline alkaline hydrolysis kit of Nanjing Jiancheng Bioengineering Technology Co., Ltd.). After vortex mixing, the mixture was treated with alkaline hydrolysis for 40 min under conditions of 120° C., 0.1 Kpa. […]

[3] = α-helix ratio of polypeptides by circular dichroism; format: physicochemical; conditions: PBS solution, 1 mg/mL
Protocol: The α-helix ratio of the polypeptide was measured by a circular dichromatograph (purchased from Jasco, Japan). The polypeptides MR2, S1, S2, S3, S4, S5, S6, S7, S8, S9, S10 and S11 prepared in Example 1 were dissolved in PBS solution, and the working concentration of the circular dichromatograph was adjusted to 1 mg/mL. […] Among them, the α-helix ratio refers to the percentage of the number of peptide segments of the polypeptide that maintains the alpha helix of the secondary structure in the peptide segments of the total polypeptide.

SMILES	Dynamic compliance (mL/cmH2O) [1] [mL/cmH2O]	Dynamic elasticity (cmH2O./mL) [1] [cmH2O./mL]	Dynamic resistance (cmH2O · s/Ml) [1] [cmH2O · s/Ml]	Inspiratory capacity [1] [mL]	pulmonary function of mice with pulmonary fibrosis (in words) [1]	hydroxyproline content (μg/mg protein) [2] [μg/mg protein]	α-helicity (%) [3] [%]	α-helix ratio compared with polypeptide MR2 (in words) [3]
CC(C)C[C@H](NC(=O)[C@H](CCCCN)NC(=O)[C@H](CCCCN)NC(=O)[C@H](C)NC(=O)[C@H](CS)NC(=O)[C@]1(C)CCCC=CCCC[C@](C)(NC(=O)[C@H](CC(C)C)NC(=O)[C@@H](N)Cc2c[nH]cn2)C(=O)N[C@@H](C)C(=O)N[C@@H](CS)C(=O)N[C@@H](Cc2ccccc2)C(=O)N1)C(=O)N[C@@H](CCCCN)C(=O)N[C@@H](CCCCN)C(=O)N[C@@H](CCCNC(=N)N)C(=O)O [S3, His-Leu-S5-Ala-Cys-Phe-S5-Cys-Ala-Lys-Lys-Leu-Lys-Lys-Arg] (H-HL[S5]ACF[S5]CAKKLKKR-OH; staple 3-7; N-terminus and C-terminus assumed)	0.255	47	1.143	0.646	improved	0.8287	42.1	significantly higher than that of polypeptide MR2
CSCC[C@H](NC(=O)[C@H](CC(C)C)NC(=O)[C@@H](N)Cc1c[nH]cn1)C(=O)N[C@@]1(C)CCCC=CCCC[C@@](C)(C(=O)N[C@@H](C)C(=O)N[C@@H](CCCCN)C(=O)N[C@@H](CCCCN)C(=O)N[C@@H](CC(C)C)C(=O)N[C@@H](CCCCN)C(=O)N[C@@H](CCCCN)C(=O)N[C@@H](CCCNC(=N)N)C(=O)O)NC(=O)[C@H]([C@@H](C)O)NC(=O)[C@H](Cc2ccccc2)NC(=O)[C@H](CS)NC1=O [S4, His-Leu-Met-S5-Cys-Phe-Thr-S5-Ala-Lys-Lys-Leu-Lys-Lys-Arg] (H-HLM[S5]CFT[S5]AKKLKKR-OH; staple 4-8; N-terminus and C-terminus assumed)	0.2617	59.33	1.267	0.564	improved	0.65	33.6	significantly higher than that of polypeptide MR2
CSCC[C@H](NC(=O)[C@H](CC(C)C)NC(=O)[C@@H](N)Cc1c[nH]cn1)C(=O)N[C@@H](C)C(=O)N[C@@]1(C)CCCC=CCCC[C@@](C)(C(=O)N[C@@H](CCCCN)C(=O)N[C@@H](CCCCN)C(=O)N[C@@H](CC(C)C)C(=O)N[C@@H](CCCCN)C(=O)N[C@@H](CCCCN)C(=O)N[C@@H](CCCNC(=N)N)C(=O)O)NC(=O)[C@H](CS)NC(=O)[C@H]([C@@H](C)O)NC(=O)[C@H](Cc2ccccc2)NC1=O [S5, His-Leu-Met-Ala-S5-Phe-Thr-Cys-S5-Lys-Lys-Leu-Lys-Lys-Arg] (H-HLMA[S5]FTC[S5]KKLKKR-OH; staple 5-9; N-terminus and C-terminus assumed)	0.3117	47.5	0.85	0.738	improved	0.6575	69.1	significantly higher than that of polypeptide MR2
CSCC[C@H](NC(=O)[C@H](CC(C)C)NC(=O)[C@@H](N)Cc1c[nH]cn1)C(=O)N[C@@H](C)C(=O)N[C@@H](CS)C(=O)N[C@@]1(C)CCCC=CCCC[C@@](C)(C(=O)N[C@@H](CCCCN)C(=O)N[C@@H](CC(C)C)C(=O)N[C@@H](CCCCN)C(=O)N[C@@H](CCCCN)C(=O)N[C@@H](CCCNC(=N)N)C(=O)O)NC(=O)[C@H](C)NC(=O)[C@H](CS)NC(=O)[C@H]([C@@H](C)O)NC1=O [S6, His-Leu-Met-Ala-Cys-S5-Thr-Cys-Ala-S5-Lys-Leu-Lys-Lys-Arg] (H-HLMAC[S5]TCA[S5]KLKKR-OH; staple 6-10; N-terminus and C-terminus assumed)	0.2683	52.17	1.067	0.558	improved	0.8337	36.4	significantly higher than that of polypeptide MR2
CSCC[C@H](NC(=O)[C@H](CC(C)C)NC(=O)[C@@H](N)Cc1c[nH]cn1)C(=O)N[C@@H](C)C(=O)N[C@@H](CS)C(=O)N[C@@H](Cc1ccccc1)C(=O)N[C@@]1(C)CCCC=CCCC[C@@](C)(C(=O)N[C@@H](CC(C)C)C(=O)N[C@@H](CCCCN)C(=O)N[C@@H](CCCCN)C(=O)N[C@@H](CCCNC(=N)N)C(=O)O)NC(=O)[C@H](CCCCN)NC(=O)[C@H](C)NC(=O)[C@H](CS)NC1=O [S7, His-Leu-Met-Ala-Cys-Phe-S5-Cys-Ala-Lys-S5-Leu-Lys-Lys-Arg] (H-HLMACF[S5]CAK[S5]LKKR-OH; staple 7-11; N-terminus and C-terminus assumed)	0.29	51	0.8833	0.684	improved	0.655	51.0	significantly higher than that of polypeptide MR2
